Results published in patent US20230053437A1, “LIPID COMPOUNDS AND LIPID NANOPARTICLE COMPOSITIONS” (Suzhou Abogen Biosciences Co., Ltd., priority 2020, published 2023).

How the values were obtained:
Type in all cases: physicochemical
[1] = Encapsulation efficiency of lipid nanoparticles, Quant-it Ribogreen RNA quantification assay; conditions: LNP with hEPO mRNA
Description: (§1) Briefly, a cationic lipid provided herein, DSPC, cholesterol, and PEG-lipid were solubilized in ethanol at a molar ratio of 50:10:38.5:1.5, and mRNA were diluted in 10 to 50 mM citrate buffer, pH=4. The LNPs were prepared at a total lipid to mRNA weight ratio of approximately 10:1 to 30:1 by mixing the ethanolic lipid solution with the aqueous mRNA solution at a volume ratio of 1:3 using a microfluidic apparatus, total flow rate ranging from 9-30 mL/min. Ethanol were thereby removed and replaced by DPBS using dialysis. Finally, the lipid nanoparticles were filtered through a […] sterile filter.
(§2) Lipid nanoparticle size were determined by dynamic light scattering using a Malvern Zetasizer Nano ZS (Malvern UK) using a 173° backscatter detection mode. The encapsulation efficiency of lipid nanoparticles were determined using a Quant-it Ribogreen RNA quantification assay kit (Thermo Fisher Scientific, UK) according to the manufacturer's instructions.

[2] = Lipid nanoparticle size by dynamic light scattering (Malvern Zetasizer Nano ZS); conditions: LNP: cationic lipid/DSPC/cholesterol/PEG-lipid 50:10:38.5:1.5 with hEPO mRNA
Description: as §1, §2

[3] = Apparent pKa of LNP formulations, TNS fluorescence assay; conditions: LNP cationic lipid/DSPC/cholesterol/DMG-PEG 50/10/38.5/1.5 mol %, pH 3 to 9
Description: As reported in literature, the apparent pKa of LNP formulations correlates with the delivery efficiency of LNPs for nucleic acids in vivo. The apparent pKa of each formulation was determined using an assay based on fluorescence of 2-(p-toluidino)-6-napthalene sulfonic acid (TNS). LNP formulations comprising of cationic lipid/DSPC/cholesterol/DMG-PEG (50/10/38.5/1.5 mol %) in PBS were prepared as described above. TNS was prepared as a 300 uM stock solution in distilled water. LNP formulations were diluted to 0.1 mg/ml total lipid in 3 mL of buffered solutions containing 50 mM sodium citrate, 50 mM sodium phosphate, 50 mM sodium borate, and 30 mM sodium chloride where the pH ranged from 3 to 9. An aliquot of the TNS solution was added to give a final concentration of 0.1 mg/ml and following vortex mixing fluorescence intensity was measured at room temperature in a Molecular Devices Spectramax iD3 spectrometer using excitation and mission wavelengths of 325 nm and 435 nm. A sigmoidal best fit analysis was applied to the fluorescence data and the pKa value was measured as the pH giving rise to half-maximal fluorescent intensity.

In the case of `CCCCCCCCC(CCCCCC)COC(=O)CCCCCC(=O)OCC1(COC(=O)CCCCCC(=O)OCC(CCCCCC)CCCCCCCC)CCN(C(=O)CCCN2CCCC2)CC1` (stereo not drawn) [Compound 58], the “Encapsulation Efficiency” value [1] is reported as 102.4%, the polydispersity [2] is reported as 0.356 and the “size (nm)” value [2] is reported as 97.85 nm. The “Apparant Pka” value [3] was 13.72.
With `CCCCCCCCC(CCCCCC)COC(=O)CCCCCC(=O)OCC1(COC(=O)CCCCCC(=O)OCC(CCCCCC)CCCCCCCC)CCN(C(=O)CCCN2CCCCC2)CC1` (stereo not drawn) [Compound 59] the “Encapsulation Efficiency” value [1] was 102.1%, the polydispersity [2] was 0.378 and the “size (nm)” value [2] was 109.8 nm. For the same compound, the “Apparant Pka” value [3] was 11.77.
With `CCCCCCCCC(CCCCCC)COC(=O)CCCCCC(=O)OCC1(COC(=O)CCCCCC(=O)OCC(CCCCCC)CCCCCCCC)CCN(C(=O)CCCN2CCOCC2)CC1` (stereo not drawn) [Compound 60] the “Encapsulation Efficiency” value [1] was 91.7%, the polydispersity [2] was 0.048 and the “size (nm)” value [2] was 90.17 nm. For the same compound, the “Apparant Pka” value [3] was 7.44.
In the case of `CCCCCCCCCCCC(=O)OCC1(COCCCCCCCC(=O)OC(CCCCCCCC)CCCCCCCC)CCN(C(=O)CCN(C)C)CC1` [Compound 61], the “Encapsulation Efficiency” value [1] is reported as 99.7%, the polydispersity [2] is reported as 0.2 and the “size (nm)” value [2] is reported as 54.56 nm. For the same compound, the “Apparant Pka” value [3] was 7.65.
In the case of `CCCCCCCC(=O)OCC1(COC(=O)CCCCCCC)CCN(CCO)CC1` [Compound 62], the “Encapsulation Efficiency” value [1] is reported as 94.6%, the polydispersity [2] is reported as 0.122 and the “size (nm)” value [2] is reported as 120.8 nm. For the same compound, the “Apparant Pka” value [3] was 6.972.
With `CCCCCCCCCOC(=O)CCC1(CCC(=O)OCCCCCCCCC)CCN(C(=O)CCN(C)C)CC1` [Compound 63] the “Encapsulation Efficiency” value [1] was 97.4%, the polydispersity [2] was 0.113 and the “size (nm)” value [2] was 82.74 nm. For the same compound, the “Apparant Pka” value [3] was 7.859.
